We go through 60 compounds from EPA's ToxValDB 9.5.

SMILES strings stand for the structures. “And” between values parts separate entries of the source, which are not always exact repeats. Identical values can stand only once.

The series has as its system Rattus norvegicus. The note with it: for LD50: acute.
Where [1] appears, read: subchronic, duration: 90 days, clinical chemistry.
Where [2] appears, read: subchronic, duration: 90 days, oral, diet, M/F, Wistar, no effects.
[3] abbreviates: subchronic, duration: 90 days, oral, M/F, Sprague-Dawley, histopathology: neoplastic.
Setting [4] is: subchronic, duration: 90 days, oral, diet, M/F, Sprague-Dawley, histopathology: nonneoplastic.
Setting [5] is: subchronic, duration: 90 days, oral, gavage, M, hematological.
Setting [6] is: subchronic, duration: 90 days, no effects.
[7] abbreviates: subchronic, duration: 90 days, oral, diet.
The mark [8] stands for this setting: subchronic, duration: 90 days, oral, gavage, M/F, body weight.
Setting [9] is: subchronic, duration: 90 days, oral.
Setting [10] is: subchronic, duration: 90 days, oral, diet, M/F, no effects.
Setting [11] is: subchronic, duration: 13 weeks, oral, gavage.

In general, NOAEL refers to the highest dose or exposure tested at which no adverse effect was seen. Under “subchronic, duration: 13 weeks, oral, diet, no effects”, `Cc1noc(C)c1Cn1cc(N2C(=O)CN(Cc3cccc(O)c3)C2=O)cn1` returned an NOAEL of 100 mg/kg-day.

As to `Cc1ccc(OCC(=O)N(Cc2cccs2)c2ccn[nH]2)cc1`, the no observed adverse effect level (NOAEL) turned out to be 1000 mg/kg-day (reproduction developmental, oral, gavage, F, no effects) and 100 mg/kg-day (subchronic, duration: 13 weeks, oral, gavage, M/F, no effects).

Under “subchronic, duration: 90 days, oral, diet, M/F, Sprague-Dawley, hematological”, `COc1ccc(C=CC(=O)NCCc2ccc(OC)c(OC)c2)cc1OC` had an NOAEL of 23 mg/kg-day.

With `CC(C)[C@@H]1CC[C@@H](C)C[C@@H]1NC(=O)C1CC1`, the NOAEL (subchronic, duration: 90 days, oral, diet, M/F, Sprague-Dawley, body weight) came out at 147 mg/kg-day.

`CC1SCCSS1` (stereo not given) [1,2,4-Trithiane, 3-methyl-] showed an NOEL (subchronic, duration: 13 weeks, oral, diet) of 0.3 mg/kg-day.

Where the note is “subchronic, duration: 90 days, oral, no effects”, `COc1cccc(OC)c1` [1,3-Dimethoxybenzene] returned an NOAEL of 10 mg/kg-day.

As to `SCCCCS` [1,4-Butanedithiol], the NOAEL (subchronic, duration: 90 days, oral, diet, M/F, Sprague-Dawley, no effects) was 0.703 mg/kg-day (5×) and 0.705 mg/kg-day (5×).

Compound `CCCCCO` [1-Pentanol] displayed a no-observed-adverse-effect level (NOAEL) (subchronic, duration: 90 days, oral, gavage, no effects) of 1000 mg/kg-day.

As for `Clc1ccc(-c2ccc(Cl)c(Cl)c2Cl)c(Cl)c1Cl` [2,2',3,3',4,4'-Hexachlorobiphenyl], under setting [1], the NOAEL came out at 0.8 mg/kg-day.

`Clc1cc(Cl)c(-c2cc(Cl)c(Cl)cc2Cl)cc1Cl` [2,2',4,4',5,5'-Hexachlorobiphenyl] returned a no observed adverse effect level (NOAEL) under setting [1] of 1.2 mg/kg-day.

Consider `CC1COC(C)O1` (stereo not given) [2,4-Dimethyl-1,3-dioxolane], for which, for the setting “chronic, duration: 2 years”, the NOEL was found to be 2500 mg/kg-day.

Regarding `CSSc1cc(C)oc1C` [2,5-Dimethyl-3-(methyldisulfanyl)furan], the NOAEL under setting [2] came to 5 mg/kg-day.

The compound `O=C(O)c1ccc(C(=O)O)o1` [2,5-Furandicarboxylic acid] yielded a no-observed-adverse-effect level (NOAEL) (subchronic, duration: 90 days, oral, gavage, M/F, Wistar, body weight) of 300 mg/kg-day.

Consider `CC(=O)c1ccc[nH]1` [2-Acetylpyrrole], for which the NOAEL is 0.048 mg/kg-day under setting [3], 48 mg/kg-day under setting [4] and 48 mg/kg-day under setting [5].

For `CC(=O)c1nccs1` [2-Acetylthiazole], the NOAEL (subchronic, duration: 90 days, oral, diet, body weight) was 50 mg/kg-day.

In turn, `CCCCC(CC)COC(=O)c1ccc(N(C)C)cc1` (stereo not given) [2-Ethylhexyl 4-(dimethylamino)benzoate] came in with an NOAEL (short-term, duration: 4 weeks, M/F, histopathology: nonneoplastic) of 100 mg/kg-day.

`Cc1occc1S` [2-Methyl-3-furanthiol]: under setting [6], the NOAEL was found to be 5 mg/kg-day.

For the compound `CC1OCCC1=O` (stereo not given) [2-Methyltetrahydrofuran-3-one], the NOAEL under setting [6] came to 91 mg/kg-day.

As to `CCCC(C)=O` [2-Pentanone], under “subchronic, duration: 13 weeks, oral, gavage, M/F, organ weight”, the NOAEL was determined as 20 mg/kg-day.

On to `CCC(=O)c1ccc[nH]1` [2-Propionylpyrrole], for which the no observed adverse effect level (NOAEL) by setting is: under setting [3], 0.048 mg/kg-day; under setting [5], 48 mg/kg-day.

Under setting [7], `SCc1ccccn1` [2-Pyridinemethanethiol] returned a no-observed-adverse-effect level (NOAEL) of 3.4 mg/kg-day.

Compound `CSSSCc1ccco1` [2-[(Methyltrisulfanyl)methyl]furan] yielded a no-observed-adverse-effect level (NOAEL) under setting [2] of 0.56 mg/kg-day.

Turning to `C/C=C/C=C/C(=O)O` [2E,4E-Hexadienoic acid], the NOAEL (reproduction developmental, oral, gavage, M/F, Crj:CD, body weight) came out at 300 mg/kg-day.

In the case of `O=C1CCc2ccccc2O1` [3,4-Dihydrocoumarin], the NOAEL (chronic, duration: 2 years, oral, gavage) turned out to be 300 mg/kg-day; the NOAEL (subchronic, duration: 13 weeks) worked out at 150 mg/kg-day; the no observed adverse effect level (NOAEL) (subchronic, duration: 13 weeks, hematological) stood at 150 mg/kg-day.

The compound `OCCc1ccc(O)c(O)c1` [3,4-Dihydroxyphenylethanol] yielded an NOAEL under setting [8] of 50 mg/kg-day and an NOAEL (subchronic, duration: 90 days, oral, gavage, Wistar, body weight) of 250 mg/kg-day.

Turning to `C=C=CC(C)C(=O)OCC` (stereo not given) [3,4-Pentadienoic acid, 2-methyl-, ethyl ester], the no observed adverse effect level (NOAEL) (chronic, duration: 92 days) was determined as 1 mg/kg-day.

For `CCC=C1OC(=O)c2ccccc21` [3-Propylidenephthalide], the NOAEL under setting [9] turned out to be 5.42 mg/kg-day.

Under setting [10], `Cc1occc1SC(C)CC=O` (stereo not given) [3-[(2-Methylfuran-3-yl)sulfanyl]butanal] registered an NOAEL of 3.76 mg/kg-day.

`C/C=C/C=C\CC/C=C/C(=O)NCC(C)C` [(E,Z,E)-N-(2-Methylpropyl)-2,6,8-decatrienamide]: the NOAEL under setting [4] is 23.4 mg/kg-day.

Usually LOAEL stands for the lowest tested level that showed an adverse finding. As to `C=CCN=C=S` [Allyl isothiocyanate], the LOAEL (chronic, duration: 103 weeks, oral, gavage, M, histopathology: nonneoplastic) was found to be 9 mg/kg-day. In addition, the no-observed-adverse-effect level (NOAEL) (chronic, duration: 721 days, oral, gavage, M/F, histopathology: neoplastic) was determined as 12 mg/kg-day.

On to `CSCc1ccccc1` [Benzyl methyl sulfide], for which the NOAEL under setting [9] came to 0.43 mg/kg-day.

Under “chronic, duration: 2 years, oral, diet, M/F, Wistar, histopathology: neoplastic”, `CCC[CH2][Sn]([CH2]CCC)([CH2]CCC)[O][Sn]([CH2]CCC)([CH2]CCC)[CH2]CCC` [Bis(tributyltin)oxide] gave a no observed adverse effect level (NOAEL) of 0.025 mg/kg-day.

As for `O=C1CCCCCN1` [Caprolactam], the NOEL under setting [7] was 750 mg/kg-day.

Regarding `O=C([O-])c1ccccn1.O=C([O-])c1ccccn1.O=C([O-])c1ccccn1.[Cr+3]` [Chromium picolinate], the NOAEL (chronic, duration: 2 years, M/F, Fischer 344, no effects) amounted to 2400 mg/kg-day.

Where the note is “subchronic, duration: 13 weeks, oral, diet, M/F, Sprague-Dawley, clinical chemistry”, `CC(/C=C/C=C(C)/C=C/C(=O)[O-])=C\C=C\C=C(C)\C=C\C=C(C)\C=C\C(=O)[O-].[K+].[K+]` [Dipotassium 6,6'-diapo-psi,psi-carotenedioate] showed a no-observed-adverse-effect level (NOAEL) of 30 mg/kg-day.

With `CCCSSSCCC` [Dipropyl trisulfide], under setting [11], the NOEL was determined as 4.8 mg/kg-day.

The compound `CCOC(=O)c1ccccc1O` [Ethyl salicylate] returned a no observed adverse effect level (NOAEL) (chronic, duration: 2 years, oral, growth) of 50 mg/kg-day.

With `CCOC(C)(C)C` [Ethyl t-butyl ether], where the note is “chronic, duration: 6 months, oral, gavage, M/F, Sprague-Dawley, organ weight”, the NOAEL was determined as 100 mg/kg-day.

Compound `CCOC(=O)c1ccc(O)cc1` [Ethylparaben] showed an NOAEL (subchronic, duration: 8 weeks, M, Wistar, no effects) of 1040 mg/kg-day.

Compound `O=C(O)c1cc(O)c(O)c(O)c1` [Gallic acid] gave an NOAEL (subchronic, duration: 13 weeks, oral, M/F, organ weight) of 119 mg/kg-day.

`OCc1c[nH]c2ccccc12` [Indole-3-carbinol] returned an NOAEL (chronic, duration: 37 weeks, oral, diet, M, no effects) of 50 mg/kg-day.

In turn, `NCCS(=O)(=O)[O-].NCCS(=O)(=O)[O-].[Fe+2]` [Iron(II) taurate] showed an NOAEL (subchronic, duration: 13 weeks, oral, gavage, M/F, Crj:CD, no effects) of 1000 mg/kg-day.

Compound `NC(N)=NCCC[C@H](N)C(=O)O` [L-Arginine] yielded an NOAEL (subchronic, duration: 13 weeks, M/F, Crj:CD, no effects) of 3.13 mg/kg-day.

In the case of `CC(=O)N[C@H]1[C@H](O[C@H]2[C@@H](O)[C@@H](CO)O[C@@H](O[C@H]3[C@H](O)[C@@H](O)C(O)O[C@@H]3CO)[C@@H]2O)O[C@H](CO)[C@@H](O)[C@@H]1O[C@@H]1O[C@H](CO)[C@H](O)[C@H](O)[C@H]1O` (stereo not given in full) [Lacto-N-tetraose], the NOAEL (subchronic, duration: 90 days, oral, M/F, Wistar) amounted to 5000 mg/kg-day.

With `C=C(C)C1CC=C(C)CC1` (stereo not given) [Limonene], for the setting “chronic, duration: 103 weeks, oral, gavage, F, mortality”, the no observed adverse effect level (NOAEL) was 215 mg/kg-day. The compound further gave an NOEL (subchronic, duration: 13 weeks, histopathology: nonneoplastic) of 10 mg/kg-day.

In turn, `CC1=C[C@H](O)CC(C)(C)[C@H]1/C=C/C(C)=C/C=C/C(C)=C/C=C/C=C(C)/C=C/C=C(C)/C=C/C1=C(C)C[C@@H](O)CC1(C)C` [Lutein A] came in with an LEL (subchronic, duration: 13 weeks, oral, no effects) of 260 mg/kg-day. Under setting [2], this compound gave an NOAEL of 200 mg/kg-day.

Compound `Cc1cccc(C)c1N(Cn1cccn1)C(=O)CCl` [Metazachlor] yielded a no-observed-adverse-effect level (NOAEL) (chronic, duration: 2 years, organ weight) of 8.5 mg/kg-day; an NOAEL (developmental, development) of 50 mg/kg-day; an NOAEL (subchronic, duration: 90 days, oral, organ weight) of 21 mg/kg-day.

Turning to `CCCCCCCCCCCC(=O)N[C@@H](CCCN=C(N)N)C(=O)OCC` [N alpha-Lauroyl-L-arginine ethyl ester], the NOAEL (subchronic, duration: 13 weeks, oral, M/F, Sprague-Dawley, clinical chemistry) worked out at 47 mg/kg-day.

As to `CCNC(=O)C1CC(C)CCC1C(C)C` (stereo not given) [N-Ethyl-2-(isopropyl)-5-methylcyclohexanecarboxamide], where the note is “short-term, duration: 28 days, oral, gavage, M/F, Crj:CD”, the NOEL came to 8 mg/kg-day.

Take `Oc1ccccc1` [Phenol]: the NOAEL is, setting by setting: (developmental, duration: 10 days, oral, gavage, F, Sprague-Dawley, development) 120 mg/kg-day; (reproduction developmental, duration: 10 days, oral, gavage, F, body weight) 60 mg/kg-day.

Where the note is “oral, F, mortality”, `NCCCCN` [Putrescine] came in with an LD50 of 463 mg/kg.

On to `CSc1nccnc1C(C)C` [Pyrazine, 2-(1-methylethyl)-3-(methylthio)-], for which the no-observed-adverse-effect level (NOAEL) (subchronic, duration: 13 weeks, oral, diet, M/F, no effects) was 1.63 mg/kg-day.

For the compound `Cc1cc2nc3c(=O)[nH]c(=O)nc-3n(C[C@H](O)[C@H](O)[C@H](O)CO)c2cc1C` [Riboflavin], for the setting “subchronic, duration: 90 days, M/F, Wistar, no effects”, the NOAEL was 160 mg/kg-day.

As to `CC(=O)SCc1ccco1` [S-Furfuryl thioacetate], the NOAEL under setting [8] came to 3 mg/kg-day.

With `[Cl][Sn][Cl]` [Stannous chloride], the no observed adverse effect level (NOAEL) (subchronic, duration: 90 days, oral, diet, M/F, Wistar, body weight) came to 63 mg/kg-day.

As to `CC1=NCCS1` [Thiazole, 4,5-dihydro-2-methyl-], the NOAEL stood at 1.8 mg/kg-day (subchronic, duration: 90 days) and 1.8 mg/kg-day under setting [10].

Regarding `CC(C)(C)c1ccc(OP(Oc2ccc(C(C)(C)C)cc2C(C)(C)C)Oc2ccc(C(C)(C)C)cc2C(C)(C)C)c(C(C)(C)C)c1` [Tris(2,4-di-tert-butylphenyl) phosphite], under “chronic, duration: 2 years, oral, no effects”, the NOAEL was 58 mg/kg-day.

Under “oral, mortality”, `NC(N)=O` [Urea] had an LD50 of 14300 mg/kg-day. For the same compound, the NOEL (reproduction developmental, reproduction) was 2250 mg/kg-day.

As for `CC1=C(/C=C/C(C)=C/C=C/C(C)=C/C=C/C=C(C)/C=C/C=C(C)/C=C/C2=C(C)C[C@@H](O)CC2(C)C)C(C)(C)C[C@H](O)C1` [Zeaxanthin], under “reproduction developmental, oral, M/F, reproduction”, the no-observed-adverse-effect level (NOAEL) worked out at 150 mg/kg-day.

`CC(O)c1ccccc1` (stereo not drawn) [alpha-Methylbenzyl alcohol]: the LOAEL under setting [11] turned out to be 93 mg/kg-day.
